Reference: patent US5571832A (priority 1994, dated 1996)

Tests used:
sigma receptor [1] = settings: cited from earlier work
sigma receptor [2] = target: sigma receptor (Cavia porcellus, UniProt Q60492); assay: biochemical
NMDA receptor = settings: Carter et al 1988; cited from earlier work

Chain of sigma receptor (Cavia porcellus, UniProt Q60492) (Q60492 whole entry): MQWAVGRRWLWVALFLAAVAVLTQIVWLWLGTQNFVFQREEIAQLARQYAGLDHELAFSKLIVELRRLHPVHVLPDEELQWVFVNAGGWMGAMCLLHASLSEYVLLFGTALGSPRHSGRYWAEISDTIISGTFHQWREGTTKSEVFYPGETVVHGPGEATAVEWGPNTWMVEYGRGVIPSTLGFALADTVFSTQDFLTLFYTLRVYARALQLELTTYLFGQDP

Row | Molecule | Ki (sigma receptor [2]) [nM] | NMDA receptor antagonism (NMDA receptor) | also measured
1 | CN(CCc1ccc(Cl)c(Cl)c1)[C@@H]1CCCC[C@@H]1N1CCCC1 (single isomer, unassigned) [cis-N-[3,4-dichlorophenylethyl]-N-methyl-2-(1-pyrrolidinyl)cyclohexylamine] |  |  | sigma ligand potency and selectivity (sigma receptor [1]): extremely potent and selective ligands for the sigma receptor
2 | CCN1CCCC1CNCCc1ccc(Cl)c(Cl)c1 (stereo not drawn) [Compound 3, 2-[N-(3,4-dichlorophenylethyl)aminomethyl]-1-(ethyl)pyrrolidine] | 16 ± 3.62 |  | 
3 | CC(C(O)c1ccc(O)cc1)N1CCC(Cc2ccccc2)CC1 (stereo not drawn) [ifenprodil] |  | non-competitive NMDA receptor antagonists | 
4 | CCN1CCCC1CN(C)CCc1ccc(Cl)c(Cl)c1 (stereo not drawn) [Compound 4, 2-[N-(3,4-Dichlorophenylethyl)-N-(methyl)aminomethyl]-1-(ethyl)pyrrolidine] | 1.48 ± 0.37 |  | 
5 | CN(CCc1ccc(Cl)c(Cl)c1)CC1CCCCN1C (stereo not drawn) [Compound 2, 2-[N-[2-(3,4-Dichlorophenyl)ethyl]-N-(methyl)aminomethyl]-1-(methyl)piperidine] | 3.69 ± 0.85 |  | 
6 | 1-(4-chlorophenyl)-2-[1-(4-fluorophenyl)piperidinyl]ethanol |  | non-competitive NMDA receptor antagonists | 
